Experimental data: ChEMBL document CHEMBL3856238, “Synthesis of novel nicotinohydrazide and (1,3,4-oxadiazol-2-yl)-6-(trifluoromethyl)pyridine derivatives as potential anticancer agents” (Bioorg Med Chem Lett, 2016)

What was measured:
Format in all cases: functional, cell-based
[1] = Cytotoxicity against human HeLa cells assessed as cell growth inhibition by MTT assay
[2] = Cytotoxicity against human DU145 cells assessed as cell growth inhibition by MTT assay; conditions: DU-145
[3] = Cytotoxicity against human HepG2 cells assessed as cell growth inhibition by MTT assay
[4] = Cytotoxicity against human MDA-MB-231 cells assessed as cell growth inhibition by MTT assay

COc1ccc(-c2nnc(-c3ccc(C(F)(F)F)nc3N)o2)cc1
IC50 [1]: 14.8 µM
IC50 [2]: 10.7 µM
IC50 [3]: 11.2 µM
IC50 [4]: 13.5 µM

O=C(N/N=C/c1ccccc1)c1ccc(C(F)(F)F)nc1NCc1ccco1
IC50 [1]: 31.4 µM
IC50 [2]: 30.5 µM
IC50 [3]: 32.2 µM
IC50 [4]: 26.6 µM

CCc1nnc(-c2ccc(C(F)(F)F)nc2Nc2cccc(F)c2)o1
IC50 [1]: 20.9 µM
IC50 [2]: 22.2 µM
IC50 [3]: 26.4 µM
IC50 [4]: 18.7 µM

CCCc1nnc(-c2ccc(C(F)(F)F)nc2Nc2cccc(F)c2)o1
IC50 [1]: 19.6 µM
IC50 [2]: 18.9 µM
IC50 [3]: 17.7 µM
IC50 [4]: 13.5 µM

CCc1nnc(-c2ccc(C(F)(F)F)nc2Nc2cc(OC)c(OC)c(OC)c2)o1
IC50 [1]: 23.3 µM
IC50 [2]: 22.1 µM
IC50 [3]: 19.9 µM
IC50 [4]: 20.5 µM

O=c1[nH]cc(F)c(=O)[nH]1 [FLUOROURACIL]
IC50 [1]: 1.9 µM
IC50 [2]: 1.6 µM
IC50 [3]: 1.3 µM
IC50 [4]: 1.8 µM

FC(F)(F)c1ccc(-c2nnc(-c3ccco3)o2)c(NCc2ccco2)n1
IC50 [1]: 9.8 µM
IC50 [2]: 8.2 µM
IC50 [3]: 9.5 µM
IC50 [4]: 8.7 µM
